Earlier results, collected in patent US5817671A, “5-HT1F agonists” (Eli Lilly and Company, priority 1997, dated 1998).

What was measured:
[1] = system: neurogenic inflammation, peptide extravasation; conditions: Moskowitz, Neurology 43(suppl. 3), S16-S20 (1993)
[2] = in vivo
[3] = in vivo; remark: listed apart in the source
[4] = treatment of migraine
[5] = system: exploratory behavior of arthritic rats; conditions: arthritic animals; Larsen and Arnt (1985)
5-HT1F receptor = target: T1, 5-HT1F receptor (Homo sapiens, UniProt P30939); conditions: reported by Weinshank et al., WO93/14201
T1 sequence (P30939 1-366): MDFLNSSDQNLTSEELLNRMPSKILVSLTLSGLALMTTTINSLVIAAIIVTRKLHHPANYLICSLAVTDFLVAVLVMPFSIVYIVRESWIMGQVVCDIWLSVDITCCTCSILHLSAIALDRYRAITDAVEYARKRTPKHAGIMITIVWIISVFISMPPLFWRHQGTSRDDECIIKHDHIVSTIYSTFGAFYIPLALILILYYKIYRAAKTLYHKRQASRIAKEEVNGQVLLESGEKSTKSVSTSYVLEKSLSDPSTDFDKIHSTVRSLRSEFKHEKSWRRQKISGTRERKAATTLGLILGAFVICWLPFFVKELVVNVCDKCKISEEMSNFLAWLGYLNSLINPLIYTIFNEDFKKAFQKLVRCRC

CNS(=O)(=O)Cc1ccc2[nH]cc(CCN(C)C)c2c1 [Sumatriptan]
block of neurogenic inflammation (in words) [1]: neurogenic inflammation is blocked | duration of action (in words) [2]: relatively short duration of action | bioavailability (in words) [3]: low bioavailability | undesirable side effects (in words) [4]: undesirable side effects, particularly vasoconstriction

CN(C)CCCC1(c2ccc(F)cc2)OCc2cc(C#N)ccc21 (stereo not drawn) [citalopram]
effect on exploratory behavior (in words) [5]: improve exploratory behavior

NCCc1c[nH]c2ccc(O)cc12 [serotonin]
inhibition of forskolin stimulated cAMP production (in words) (5-HT1F receptor): inhibit forskolin stimulated cAMP production
